The source of these data is PubChem BioAssay AID248 (DTP/NCI, 2004).

“And” between values parts separate entries of the source, which are not always exact repeats. Equal values may be shown once. Inconclusive results and toxic doses are left out. Numbered stars: 1 amine (or outer) side, 2 acyl side, 3 side chain; on linkers, the order of the positions; unused ones are H or OH. Bridge positions count the residues as written; N and C are the ends. Square brackets hold non-standard residues; d marks the D form. Peptide text beside a SMILES is read from it. I, II: the chains in the order shown. Actinocin(9to1) = Cc1c2oc3c(C)ccc(C(=O)[*:1])c3nc-2c(C(=O)[*:2])c(N)c1=O; X4 = O=C(C1CC(Cl)CN1[*:1])[*:2]; NMeV = CN[CH](C(=O)O)C(C)C; Sar = CNCC(=O)O

The assay has as its system L1210 leukemia ip in BDF1 mice, survival T/C. Nature of the assay: NCI In Vivo Anticancer Drug Screen. Data for tumor model L1210 Leukemia (intraperitoneal) in B6D2F1 (BDF1) mice. Conditions: endpoint: mean survival time, higher = longer survival. The essentials:
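In this screen, tumor-bearing mice given compound are compared to those given vehicle, and their survival values are reported as a treated-to-control quotient.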

[1] abbreviates: dose: 100.0 mg/kg/injection, schedule: Q01DX009 (ip), vehicle: saline.
Where [2] appears, read: dose: 200.0 mg/kg/injection, schedule: Q01DX009 (ip), vehicle: saline.
Setting [3] is: dose: 100.0 mg/kg/injection, schedule: Q01DX001 (ip), vehicle: carboxymethylcellulose (CMC).
[4] abbreviates: dose: 200.0 mg/kg/injection, schedule: Q01DX001 (ip), vehicle: carboxymethylcellulose (CMC).
The mark [5] stands for this setting: dose: 400.0 mg/kg/injection, schedule: Q01DX001 (ip), vehicle: carboxymethylcellulose (CMC).
Setting [6] is: dose: 100.0 mg/kg/injection, schedule: Q04DX003 (ip), vehicle: Klucel (hydroxypropylcellulose) (HPC).
Setting [7] is: dose: 200.0 mg/kg/injection, schedule: Q04DX003 (ip), vehicle: Klucel (hydroxypropylcellulose) (HPC).
Where [8] appears, read: dose: 400.0 mg/kg/injection, schedule: Q04DX003 (ip), vehicle: Klucel (hydroxypropylcellulose) (HPC).
Setting [9] is: dose: 25.0 mg/kg/injection, schedule: Q04DX003 (ip), vehicle: saline with Tween-80.
Where [10] appears, read: dose: 50.0 mg/kg/injection, schedule: Q04DX003 (ip), vehicle: saline with Tween-80.
[11] abbreviates: dose: 100.0 mg/kg/injection, schedule: Q04DX003 (ip), vehicle: saline with Tween-80.
Where [12] appears, read: dose: 100.0 mg/kg/injection, schedule: Q01DX001 (ip), vehicle: saline.
Where [13] appears, read: dose: 100.0 mg/kg/injection, schedule: Q04DX003 (ip), vehicle: saline.
[14] abbreviates: dose: 200.0 mg/kg/injection, schedule: Q01DX001 (ip), vehicle: saline.
Where [15] appears, read: dose: 200.0 mg/kg/injection, schedule: Q04DX003 (ip), vehicle: saline.
Where [16] appears, read: dose: 400.0 mg/kg/injection, schedule: Q01DX001 (ip), vehicle: saline.
The mark [17] stands for this setting: dose: 100.0 mg/kg/injection, schedule: Q01DX009 (ip), vehicle: Klucel (hydroxypropylcellulose) (HPC).
Where [18] appears, read: dose: 200.0 mg/kg/injection, schedule: Q01DX009 (ip), vehicle: Klucel (hydroxypropylcellulose) (HPC).
Setting [19] is: dose: 100.0 mg/kg/injection, schedule: Q01DX005 (ip), vehicle: saline.
The mark [20] stands for this setting: dose: 200.0 mg/kg/injection, schedule: Q01DX005 (ip), vehicle: saline.

Consider `COC(=O)C(Br)C(C)OC` (stereo not given), for which the T/C was 96 % of control under setting [1] and 101 % of control under setting [2].

Regarding `Cc1c2oc3c(C)ccc(C(=O)NC4C(=O)NC(C(C)C)C(=O)N5CC(Cl)CC5C(=O)N(C)CC(=O)N(C)C(C(C)C)C(=O)OC4C)c3nc-2c(C(=O)NC2C(=O)NC(C(C)C)C(=O)N3CC(Cl)CC3C(=O)N(C)CC(=O)N(C)C(C(C)C)C(=O)OC2C)c(N)c1=O` (stereo not given) (I: TV[X4][Sar][NMeV] / II: TV[X4][Sar][NMeV]; ester I:1-I:C, II:1-II:C; linker I:N-II:N via Actinocin(9to1); configuration not given here), the T/C (dose: 200.0 micrograms/kg/injection, schedule: Q01DX009 (ip), vehicle: saline + alcohol) was 117 % of control; the T/C (dose: 300.0 micrograms/kg/injection, schedule: Q01DX009 (ip), vehicle: saline + alcohol) is 123 % of control; the T/C (dose: 600.0 micrograms/kg/injection, schedule: Q01DX009 (ip), vehicle: saline + alcohol) was 124 % of control; the T/C (dose: 800.0 micrograms/kg/injection, schedule: Q01DX009 (ip), vehicle: saline + alcohol) was 156 % of control; the T/C (dose: 800.0 micrograms/kg/injection, schedule: Q04DX003 (ip), vehicle: saline + alcohol) was 122 % of control; the T/C (dose: 4800.0 micrograms/kg/injection, schedule: Q04DX003 (ip), vehicle: saline + alcohol) is 121 % of control.

As to `O=[N+]([O-])c1cc(N(c2ccccc2)c2ccccc2)c(Cl)cc1Cl`, the T/C is 111 % of control under setting [3], 103 % of control under setting [4] and 95 % of control under setting [5].

Turning to `Clc1ccc(N2CCN(c3ccc(Cl)cc3)CC2)cc1`, the T/C under setting [6] is 88 % of control, the T/C under setting [7] is 101 % of control and the T/C under setting [8] is 87 % of control.

Regarding `O=C(O)c1ccccc1C(=O)Nc1ccc([N+](=O)[O-])cc1`, the T/C under setting [9] is 93 % of control, the T/C under setting [10] was 90 % of control and the T/C under setting [11] is 98 % of control.

Take `CCCC(=O)NO`: the T/C is 97 % of control under setting [12]; 102 % of control under setting [1]; 109 % of control and 105 % of control under setting [13]; 114 % of control under setting [14]; 104 % of control under setting [2]; 111 % of control and 96 % of control under setting [15]. Further, the T/C under setting [16] is 108 % of control; the T/C (dose: 400.0 mg/kg/injection, schedule: Q01DX009 (ip), vehicle: saline) is 114 % of control; the T/C (dose: 400.0 mg/kg/injection, schedule: Q04DX003 (ip), vehicle: saline) is 112 % of control and 100 % of control.

With `O=S1(=O)CC(c2ccc(Br)cc2)Nc2ccccc21` (stereo not given), the T/C is 98 % of control under setting [12]; 97 % of control (dose: 100.0 mg/kg/injection, schedule: Q04DX003 (ip), vehicle: acetone); 101 % of control under setting [14]; 100 % of control (dose: 200.0 mg/kg/injection, schedule: Q04DX003 (ip), vehicle: acetone); 98 % of control under setting [16]; 100 % of control (dose: 400.0 mg/kg/injection, schedule: Q04DX003 (ip), vehicle: acetone).

`N#CCc1ccc(N=Cc2ccc([N+](=O)[O-])s2)cc1`: the T/C runs as follows: under setting [9], 102 % of control; under setting [10], 90 % of control.

In the case of `CCCCOC(=O)C(C)OC(=O)CCC` (stereo not given), the T/C under setting [17] was 102 % of control; the T/C under setting [6] is 99 % of control; the T/C under setting [18] was 90 % of control; the T/C under setting [7] was 107 % of control; the T/C (dose: 400.0 mg/kg/injection, schedule: Q01DX009 (ip), vehicle: Klucel (hydroxypropylcellulose) (HPC)) is 102 % of control; the T/C under setting [8] was 102 % of control.

With `[O-][N+]1(c2ccc(Cl)cc2)CC[N+]([O-])(c2ccc(Cl)cc2)CC1` (stereo not given), the T/C runs as follows: under setting [6], 96 % of control; under setting [7], 94 % of control; under setting [8], 100 % of control.

`CC(=O)C1C(=O)N(C)C(=O)N(C)C1=O`: the T/C runs as follows: (dose: 75.0 mg/kg/injection, schedule: Q01DX001 (ip), vehicle: carboxymethylcellulose (CMC)) 97 % of control; (dose: 150.0 mg/kg/injection, schedule: Q01DX001 (ip), vehicle: carboxymethylcellulose (CMC)) 100 % of control; (dose: 300.0 mg/kg/injection, schedule: Q01DX001 (ip), vehicle: carboxymethylcellulose (CMC)) 103 % of control.

For the compound `COc1ccccc1CNCCCO`, the T/C was 96 % of control (dose: 50.0 mg/kg/injection, schedule: Q01DX001 (ip), vehicle: saline); 102 % of control under setting [12]; 106 % of control under setting [14]; 100 % of control under setting [16].

As for `NC(=S)c1c(N)ncn1C1OC(CO)C(O)C1O` (stereo not given), the T/C by setting is: under setting [19], 92 % of control; under setting [20], 90 % of control.

Turning to `CNc1ccccc1C(N)=S`, the T/C is 111 % of control (dose: 50.0 mg/kg/injection, schedule: Q01DX009 (ip), vehicle: saline); 106 % of control (dose: 50.0 mg/kg/injection, schedule: Q04DX003 (ip), vehicle: saline); 97 % of control under setting [1]; 105 % of control under setting [13]; 101 % of control under setting [2]; 105 % of control under setting [15].

Take `SCc1ccc(Br)cc1`: the T/C is, setting by setting: under setting [3], 104 % of control; under setting [4], 98 % of control; under setting [5], 104 % of control.

`CC1C(C(C)(C)C)N1C` (stereo not given): the T/C by setting is: under setting [6], 108 % of control; under setting [7], 110 % of control.

For `CN(C)CCCNCC(Cc1ccccc1)c1ccccc1` (stereo not given), where the note is “dose: 100.0 mg/kg/injection, schedule: Q04DX002 (ip), vehicle: saline”, the T/C is 93 % of control.

Turning to `CCCCC(=O)N/N=C/c1c[nH]c2ccc(Br)cc12`, the T/C was 88 % of control under setting [3], 93 % of control under setting [4] and 93 % of control under setting [5].

As for `Cc1ccccc1/C=N/Nc1nnc(N/N=C/c2ccccc2C)c2ccccc12`, the T/C is 91 % of control under setting [3], 109 % of control under setting [4] and 95 % of control under setting [5].

On to `Cc1nc2sc3c(c2c(=O)[nH]1)CCCC3`, for which the T/C was 122 % of control (dose: 50.0 mg/kg/injection, schedule: Q01DX001 (ip), vehicle: saline sonified); 103 % of control (dose: 100.0 mg/kg/injection, schedule: Q01DX001 (ip), vehicle: saline sonified); 101 % of control (dose: 200.0 mg/kg/injection, schedule: Q01DX001 (ip), vehicle: saline sonified).

Consider `COc1ccc2[nH]c3c(c(=O)c2c1)CCCC3`, for which the T/C runs as follows: (dose: 50.0 mg/kg/injection, schedule: Q01DX001 (ip), vehicle: carboxymethylcellulose (CMC)) 101 % of control; under setting [3], 95 % of control; under setting [4], 100 % of control; under setting [5], 97 % of control.

As to `CCCC(C)OP(=O)(OCC)OCC` (stereo not given), the T/C is 94 % of control under setting [17] and 100 % of control under setting [18].

With `CC(C)(C)c1cc(Br)c(O)c(C(=O)O)c1`, under setting [4], the T/C is 98 % of control.

In the case of `COC(=O)c1n[nH]c(C2OCC3OC(C)(C)OC32)c1I` (stereo not given), the T/C was 98 % of control under setting [19] and 98 % of control under setting [20].

For the compound `CCOC(=O)CCCCN(C(=O)OCc1ccccc1)N(C)C(=O)OCc1ccccc1`, the T/C under setting [9] was 115 % of control; the T/C under setting [10] was 95 % of control; the T/C under setting [11] is 101 % of control; the T/C (dose: 200.0 mg/kg/injection, schedule: Q04DX003 (ip), vehicle: saline with Tween-80) is 103 % of control; the T/C (dose: 400.0 mg/kg/injection, schedule: Q04DX003 (ip), vehicle: saline with Tween-80) is 97 % of control.

Take `O=C(Nc1ccc(N=C(c2ccccc2)N2CCOCC2)cc1)c1ccc(C(=O)Nc2ccc(N=C(c3ccccc3)N3CCOCC3)cc2)cc1`: the T/C (dose: 62.0 mg/kg/injection, schedule: Q01DX Z (ip), vehicle: carboxymethylcellulose (CMC)) was 92 % of control; the T/C (dose: 125.0 mg/kg/injection, schedule: Q01DX Z (ip), vehicle: carboxymethylcellulose (CMC)) is 86 % of control; the T/C (dose: 250.0 mg/kg/injection, schedule: Q01DX Z (ip), vehicle: carboxymethylcellulose (CMC)) was 91 % of control.
